The results in this text go back to patent publication US7763617B2, “Pyrazolopyridine-4-yl pyridazinone derivatives and addition salts thereof, and PDE inhibitors comprising the same derivatives or salts as active ingredient” (Kyorin Pharmaceutical Co., Ltd., priority 2005, dated 2010).

The target of experiment [1] is T1, PDE4Bcat (Homo sapiens, UniProt Q07343).
T1 construct: catalytic domain (indicated as “cat,” hereinafter), PDE4Bcat; made in house; host or cells: Sf9 insect cells (baculovirus, Bac-to-Bac)
T1 sequence (Q07343 330-659 limits assumed): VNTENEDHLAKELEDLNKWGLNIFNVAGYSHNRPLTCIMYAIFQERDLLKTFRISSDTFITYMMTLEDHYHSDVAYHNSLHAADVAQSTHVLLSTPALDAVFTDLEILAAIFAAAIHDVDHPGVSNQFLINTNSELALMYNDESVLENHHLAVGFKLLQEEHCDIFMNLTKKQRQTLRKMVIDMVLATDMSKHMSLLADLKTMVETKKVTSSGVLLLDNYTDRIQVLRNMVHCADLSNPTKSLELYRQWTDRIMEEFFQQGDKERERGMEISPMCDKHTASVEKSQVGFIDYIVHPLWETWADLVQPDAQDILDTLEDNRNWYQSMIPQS
The experiment is described as follows: Inhibition of phosphodiesterase activity, [3H]-cAMP hydrolysis, recombinant PDE4Bcat. The experiment is classed as biochemical. The settings on record: cAMP 2 μmol/L, read-out: IC50(μmol/L) PDE4. On the procedure: (§1) RT-PCR was performed to isolate cDNA fragments of PDE3A catalytic domain (indicated as “cat,” hereinafter), PDE4Bcat, PDE5Acat and PDE10A1 from human RNA. Using Gateway system (Invitrogen) and Bac-to-Bac (registered trademark) Baculovirus Expression system (Invitrogen), the isolated cDNA fragments were transfected into Sf9 insect cells for expression of the PDE proteins. The recombinant PDE3Acat, PDE4Bcat, PDE5Acat and PDE10A1 proteins were isolated from culture supernatant or cell extracts of Sf9 cells expressed high levels of these proteins by ion-exchange chromatography and used for the following experiments.
(§2) 4 mmol/L solution of each test compound was serially diluted 4-fold with 15% DMSO solution to prepare the solutions with concentrations of 15 nmol/L to 4 mmol/L (final concentrations=1.5 nmol/L-400 μmol/L). 10 μL of each test compound solution was added to each well of 96 plate with 10 μL of [^3H]-cAMP or [^3H]-cGMP solution, diluted with a buffer (40 mmol/L Tris-HCl (pH 7.4), 10 mmol/L MgCl2) to the concentration shown in Table 20 and 40 μL of each of the human recombinant PDE proteins in units shown in Table 20. The plate was incubated at 30° C. for 20 min, and then at 65° C. for 2 min. Subsequently, 25 μL of 1 mg/mL 5′-nucleotidase (Crotalus atrox venom, Sigma) was added to each well and the plate was incubated at 30° C. for 10 min. 200 μL of Dowex solution (300 mg/mL Dowex 1×8-400 (Sigma Aldrich), 33% ethanol) was then added to each well and the plate was shaken at 4° C. for 20 min. Subsequently, 200 μL of MicroScint 20 (Packard) was added to each well and the radioactivity of each sample was measured by a scintillation counter (Topcount, Packard) IC50 was calculated by GraphPad Prism v3.03 (GraphPad Software).

Experiment [2] deals with PDE5Acat (Homo sapiens, UniProt O76074). Nature of the experiment: Inhibition of phosphodiesterase activity, [3H]-cGMP hydrolysis, recombinant PDE5Acat. Format: biochemical. The settings on record: cGMP 2 μmol/L, read-out: IC50(μmol/L) PDE5. How it is done: as §1, §2
The target in experiment [3] is T2, PDE10A1 (Homo sapiens, UniProt Q9Y233).
T2 construct: made in house; host or cells: Sf9 insect cells (baculovirus, Bac-to-Bac)
T2 sequence (Q9Y233 1-779 isoform Q9Y233-1): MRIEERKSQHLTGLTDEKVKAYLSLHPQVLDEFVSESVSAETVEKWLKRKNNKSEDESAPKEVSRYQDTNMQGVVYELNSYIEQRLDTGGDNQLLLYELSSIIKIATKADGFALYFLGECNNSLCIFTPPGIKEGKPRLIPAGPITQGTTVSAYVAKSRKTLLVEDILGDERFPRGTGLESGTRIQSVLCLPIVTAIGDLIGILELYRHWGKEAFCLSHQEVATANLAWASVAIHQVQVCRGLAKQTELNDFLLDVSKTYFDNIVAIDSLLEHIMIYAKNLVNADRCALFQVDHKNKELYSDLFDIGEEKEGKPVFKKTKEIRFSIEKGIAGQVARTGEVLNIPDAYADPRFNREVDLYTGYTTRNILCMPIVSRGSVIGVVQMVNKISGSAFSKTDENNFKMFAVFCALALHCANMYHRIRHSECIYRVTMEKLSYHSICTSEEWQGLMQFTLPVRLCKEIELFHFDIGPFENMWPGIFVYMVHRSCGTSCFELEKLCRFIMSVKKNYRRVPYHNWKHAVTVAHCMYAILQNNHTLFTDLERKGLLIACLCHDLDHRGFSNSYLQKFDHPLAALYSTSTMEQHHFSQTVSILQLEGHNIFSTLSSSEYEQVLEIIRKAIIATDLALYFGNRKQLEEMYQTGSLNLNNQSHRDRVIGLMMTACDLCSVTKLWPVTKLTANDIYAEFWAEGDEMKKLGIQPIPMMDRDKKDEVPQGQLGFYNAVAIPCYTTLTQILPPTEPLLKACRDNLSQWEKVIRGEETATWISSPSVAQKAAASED
The experiment is described as follows: Inhibition of phosphodiesterase activity, [3H]-cAMP hydrolysis, recombinant PDE10A1. The experiment is classed as biochemical. Particulars: human recombinant PDE10A1, cAMP 0.2 μmol/L; read-out: IC50(μmol/L) PDE10. On the procedure: as §1, §2

The target of experiment [4] is T3, PDE3A catalytic domain (PDE3Acat) (Homo sapiens, UniProt Q14432).
T3 construct: cDNA fragments of PDE3A catalytic domain (indicated as “cat,” hereinafter); made in house; host or cells: Sf9 insect cells (baculovirus, Bac-to-Bac)
T3 sequence (Q14432 674-1093 limits assumed): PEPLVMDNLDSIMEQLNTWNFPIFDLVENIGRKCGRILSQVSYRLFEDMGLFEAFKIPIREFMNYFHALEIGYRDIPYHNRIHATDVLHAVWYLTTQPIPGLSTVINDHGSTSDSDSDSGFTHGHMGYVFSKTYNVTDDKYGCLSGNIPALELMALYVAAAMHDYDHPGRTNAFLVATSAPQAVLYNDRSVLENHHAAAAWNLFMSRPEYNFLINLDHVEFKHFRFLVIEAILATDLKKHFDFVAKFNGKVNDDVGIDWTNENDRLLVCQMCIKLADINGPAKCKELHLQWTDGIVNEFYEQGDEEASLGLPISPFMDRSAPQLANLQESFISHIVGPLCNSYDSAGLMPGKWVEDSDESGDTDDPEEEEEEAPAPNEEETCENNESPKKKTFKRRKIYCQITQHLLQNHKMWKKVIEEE
Nature of the experiment: Inhibition of phosphodiesterase activity, [3H]-cAMP hydrolysis, recombinant PDE3Acat. The experiment is classed as biochemical. The settings on record: cAMP 2 μmol/L. On the procedure: as §1, §2

The test system of experiment [5] is histamine-induced bronchoconstriction. Nature of the experiment: Histamine-induced bronchoconstriction in guinea pigs. The settings on record: Cavia porcellus, iv, 0.5 min, 30 seconds after administration, histamine 12.5 μg/kg i.v.; for inhibition in vivo at 0.1 mg/kg: values in brackets: test compound 0.1 mg/kg, i.v.; for inhibition in vivo at 1 mg/kg: test compound 1 mg/kg i.v. Format: in vivo, guinea pig. How it is done: Guinea pigs were anesthetized with pentobarbital (30 mg/kg, i.p.). A cannula for IV administeration, a cannula for collecting blood and measurement of blood pressure and a trachea cannula were inserted into the left exterior jugular vein, right interior carotid artery and trachea, respectively. The animals were placed under artificial respiration at 60 times/min and 10 mL/kg/stroke. The airflow through the branch of the tracheal cannula was measured by a bronchospasm transducer (Ugo-Basile) and recorded on a computer via Power Lab (ADInstruments Japan). The animals were immobilized with gallamine (10 mg/kg, i.v.), then administered histamine at 10-minute intervals (12.5 μg/kg, i.v.). […] To examine the inhibitory activity of test compound, the histamine-induced bronchoconstriction was measured after 30 seconds of drug administration. The bronchoconstriction was recorded as the change of the airflow: The results were shown by percentages of the maximum histamine-induced bronchoconstriction. Each test compound was prepared as a 10 mg/mL solution in DMSO. Gallamine was prepared as a 10 mg/mL solution in physiological saline. Histamine was prepared as a 1 mg/mL solution in physiological saline, which was diluted with physiological saline to 62.5 μg/mL for use.

Setting [6] is: human recombinant PDE3Acat, read-out: IC50(μmol/L) PDE3.

pIC50: −log10 of the molar value. Like-named read-outs stand apart in the source and are kept apart here.

With `CCc1cc2c(C3=NNC(=O)CC3C)ccc(OC)n2n1` (single isomer, unassigned; (+)) [Example 315, (+)-6-(2-ethyl-7-methoxy-pyrazolo[1,5-a]pyridine-4-yl)-5-methyl-4,5-dihydro-3-(2H)-pyridazinone], the pIC50 is 5.00 to 6.00 in experiment [1]; less than 5.00 in experiment [2]; 5.00 to 6.00 in experiment [3]; 5.00 to 6.00 in experiment [4] (IC50(μmol/L) PDE3, human recombinant PDE3Acat). Also, the inhibition in vivo at 0.1 mg/kg in experiment [5] was not below 90%.

On to `CCc1cc2c(C3=NNC(=O)CC3C)cc(Cl)cn2n1` (single isomer, unassigned; (-)) [Example 314, (−)-6-(6-chloro-2-ethyl-pyrazolo[1,5-a]pyridine-4-yl)-5-methyl-4,5-dihydro-3-(2H)-pyridazinone], for which the pIC50 in experiment [1] is 6.00 to 7.00; in experiment [2], less than 5.00; in experiment [3], less than 5.00; in experiment [4] (setting [6]), less than 5.00. This compound also came in with an inhibition in vivo at 0.1 mg/kg in experiment [5] of 80 to 90%.

As for `CCc1cc2c(C3=NNC(=O)CC3)cc(Cl)cn2n1` [Example 202], the pIC50 was less than 5.00 in experiment [1], less than 5.00 in experiment [2], 5.00 to 6.00 in experiment [3] and less than 5.00 in experiment [4] (setting [6]). Moreover, in experiment [5], the inhibition in vivo at 1 mg/kg is not below 90%.

As for `CCc1cc2c(C3=NNC(=O)CC3)ccc(OC)n2n1` [Example 210, 6-(2-ethyl-7-methoxy-pyrazolo[1,5-a]pyridine-4-yl)-4,5-dihydro-3-(2H)-pyridazinone], the pIC50 in experiment [1] is 5.00 to 6.00; in experiment [2], less than 5.00; in experiment [3], less than 5.00; in experiment [4] (setting [6]), less than 5.00. In experiment [5], this compound came in with an inhibition in vivo at 1 mg/kg not below 90%.

With `COc1ccc(C2=NNC(=O)CC2C)c2cc(C(C)=O)nn12` (stereo not drawn) [Example 241, 6-(2-acetyl-7-methoxy-pyrazolo[1,5-a]pyridine-4-yl)-4,5-dihydro-5-methyl-3-(2H)-pyridazinone], the pIC50 in experiment [1] is more than 6.00; in experiment [4] (setting [6]), 5.00 to 6.00. In experiment [5], this compound registered an inhibition in vivo at 0.1 mg/kg not below 90%.

For `CCc1cc2c(C3=NNC(=O)CC3C)ccc(OC(C)C)n2n1` (stereo not drawn) [Example 245, 6-(7-isopropoxy-2-ethyl-pyrazolo[1,5-a]pyridine-4-yl)-4,5-dihydro-5-methyl-3-(2H)-pyridazinone], the results for the pIC50 in experiment [1] and in experiment [4] (setting [6]) were less than 5.00 and 5.00 to 6.00, respectively. In experiment [5], this compound yielded an inhibition in vivo at 0.1 mg/kg not below 90%.

As to `CCc1cc2c(C3=NNC(=O)CC3C)ccc(NCCO)n2n1` (stereo not drawn) [Example 247, 6-[2-ethyl-7-(2-hydroxyethylamino)-pyrazolo[1,5-a]pyridine-4-yl]-4,5-dihydro-5-methyl-3-(2H)-pyridazinone], the pIC50 in experiment [1] and in experiment [4] (setting [6]) was 5.00 to 6.00 in each case. This compound also showed an inhibition in vivo at 0.1 mg/kg in experiment [5] of 70 to 80%.

As to `CCc1cc2c(C3=NNC(=O)CC3C)ccc([S+](C)[O-])n2n1` (stereo not drawn) [Example 249, 6-(2-ethyl-7-methylsulfinyl-pyrazolo[1,5-a]pyridine-4-yl)-4,5-dihydro-5-methyl-3-(2H)-pyridazinone], the figures for the pIC50 in experiment [1] and in experiment [4] (setting [6]) were more than 6.00 and 5.00 to 6.00, respectively. For the same compound, the inhibition in vivo at 0.1 mg/kg in experiment [5] is not below 90%.

As for `CCc1nn2c([S+](C)[O-])ccc(C3=NNC(=O)CC3C)c2c1O` (stereo not drawn) [Example 250], the pIC50 in experiment [1] is 6.00 to 7.00; in experiment [4] (setting [6]), 5.00 to 6.00. In experiment [5], the inhibition in vivo at 0.1 mg/kg was not below 90%.

Take `COC(=O)c1c(C(C)C)nn2c(OC)ccc(-c3ccc(=O)n(Cc4ccccc4)n3)c12` [Example 266, 2-benzyl-6-(7-methoxy-3-methoxycarbonyl-2-isopropyl-pyrazolo[1,5-a]pyridine-4-yl)-3-(2H)-pyridazinone]: the pIC50 is 5.00 to 6.00 in experiment [1], less than 5.00 in experiment [2], less than 5.00 in experiment [3] and less than 5.00 in experiment [4] (setting [6]).

Turning to `COc1ccc(-c2ccc(=O)n(Cc3ccccc3)n2)c2c(C(=O)O)c(C(C)C)nn12` [Example 267, 2-benzyl-6-(3-carboxy-7-methoxy-2-isopropyl-pyrazolo[1,5-a]pyridine-4-yl)-3-(2H)-pyridazinone], the pIC50 in experiment [1] was 5.00 to 6.00; in experiment [2], less than 5.00; in experiment [3] it was less than 5.00; in experiment [4] (setting [6]), less than 5.00.

On to `COc1ccc(-c2ccc(=O)n(Cc3ccccc3)n2)c2cc(C(C)C)nn12` [Example 272], for which the pIC50 in experiment [3] is 6.00 to 7.00.

Consider `COc1ccc(-c2ccc(=O)n(Cc3cccnc3)n2)c2cc(C(C)C)nn12` [Example 273], for which the pIC50 is 5.00 to 6.00 in experiment [1], less than 5.00 in experiment [2], 5.00 to 6.00 in experiment [3] and less than 5.00 in experiment [4] (setting [6]).

As to `COc1ccc(-c2cc(C)c(=O)[nH]n2)c2cc(C(C)C)nn12` [Example 278, 6-(7-methoxy-2-isopropyl-pyrazolo[1,5-a]pyridine-4-yl)-4-methyl-3-(2H)-pyridazinone], the pIC50 was 6.00 to 7.00 in experiment [1], less than 5.00 in experiment [2], less than 5.00 in experiment [3] and less than 5.00 in experiment [4] (setting [6]).

In the case of `COc1ccc(C2=NNC(=O)CC2C)c2cc(C(C)C)nn12` (stereo not drawn) [Example 282], the pIC50 in experiment [1] is 6.00 to 7.00; in experiment [2] it was less than 5.00; in experiment [3], 5.00 to 6.00; in experiment [4] (setting [6]), 5.00 to 6.00. Besides, in experiment [5], the inhibition in vivo at 1 mg/kg was not below 90%.

With `COc1ccc(C2=NNC(=O)C(C)C2)c2cc(C(C)C)nn12` (stereo not drawn) [Example 283], the pIC50 in experiment [1] was 6.00 to 7.00; in experiment [2], less than 5.00; in experiment [3], less than 5.00; in experiment [4] (setting [6]), less than 5.00.

`COc1ccc(C2=NN(Cc3ccccc3)C(=O)CC2)c2cc(C(C)C)nn12` [Example 284]: in experiment [3], the pIC50 was 5.00 to 6.00.

Take `COc1ccc(C2=NN(Cc3cccnc3)C(=O)CC2)c2cc(C(C)C)nn12` [Example 285]: the pIC50 in experiment [1] was 5.00 to 6.00; in experiment [2], less than 5.00; in experiment [3], 5.00 to 6.00; in experiment [4] (setting [6]), less than 5.00.

In the case of `COc1ccc(-c2ccc(=O)[nH]n2)c2cc(C(F)(F)F)nn12` [Example 302, 6-(2-trifluoromethyl-7-methoxy-pyrazolo[1,5-a]pyridine-4-yl)-3-(2H)-pyridazinone], the pIC50 in experiment [1] was 6.00 to 7.00; in experiment [4] (setting [6]), 5.00 to 6.00. In experiment [5], this compound registered an inhibition in vivo at 0.1 mg/kg not below 90%.

For the compound `CCc1cc2c(-c3ccc(=O)[nH]n3)ccc(OC)n2n1` [Example 306], the pIC50 in experiment [1] was 5.00 to 6.00; in experiment [2] it was less than 5.00; in experiment [3], less than 5.00; in experiment [4] (setting [6]), 5.00 to 6.00. Moreover, in experiment [5], the inhibition in vivo at 1 mg/kg is not below 90%.

As to `CCc1cc2c(C3=NN(Cc4cccnc4)C(=O)CC3C)cc(Cl)cn2n1` (stereo not drawn) [Example 312, 6-(6-chloro-2-ethyl-pyrazolo[1,5-a]pyridine-4-yl)-4,5-dihydro-5-methyl-2-(pyridine-3-ylmethyl)-3-(2H)-pyridazinone], the pIC50 in experiment [1] is 5.00 to 6.00; in experiment [2] it was less than 5.00; in experiment [3], less than 5.00; in experiment [4] (setting [6]), less than 5.00.
